The data set deals with guinea pig T lymphocytes. Nature of the data set: rosette test on guinea pig T lymphocytes in immunosuppressed guinea pigs. The data set is classed as in vivo. How it is done:
The composition of the invention was also tested in vivo in various animal systems. Using the rosette test on guinea pig T lymphocytes, the state of cellular immunity under the influence of the composition according to the invention in combination with Oxoplatin, Campto, Taxol and Eloxatin was investigated. In each test, the improvement of the T lymphocyte state in immunosuppressed guinea pigs after administration of the composition according to the invention was tested. Prior to testing, the level of T lymphocytes in the guinea pigs was determined using the rosette test, and subsequently, the decrease in the amount of T lymphocytes caused by the immunosuppressant Azathioprin was determined. A second determination of the T lymphocytes was made seven days after application of Azathioprin. This was followed by subcutaneous application of the composition of the invention into the laboratory animals. The last determination of the T lymphocyte count in the guinea pigs was made 14 to 19 days after application of the composition according to the invention.

On to `CCc1c2c(nc3ccc(OC(=O)N4CCC(N5CCCCC5)CC4)cc13)-c1cc3c(c(=O)n1C2)COC(=O)[C@]3(O)CC` [Campto], for which, where the note is “guinea pigs, rosette test”, the “drop in production of rosettes following application of the cytostatic agent” value (shortened to “drop in production”) was 23%.

In the case of `O=C1[O][Pt]2([NH][C@@H]3CCCC[C@H]3[NH]2)[O]C1=O` [Eloxatin], where the note is “guinea pig, in vivo”, the “drop in production” value amounted to 22%.

On to `N.N.[Cl-].[Cl-].[OH-].[OH-].[Pt+4]` [Oxoplatin], for which the “drop in production” value (guinea pig, in vivo) is on record as “about 30%”.

In the case of `CC(=O)O[C@H]1C(=O)[C@@]2(C)[C@H]([C@H](OC(=O)c3ccccc3)[C@]3(O)C[C@H](OC(=O)[C@H](O)[C@@H](NC(=O)c4ccccc4)c4ccccc4)C(C)=C1C3(C)C)[C@]1(OC(C)=O)CO[C@@H]1C[C@@H]2O` [Taxol], the “drop in production” value (guinea pig, in vivo) is listed as 16%.

Source of the values: patent US20080220083A1, “Pharmaceutical Agent Comprising Blood Components <10 Kda And Their Use For Prophylaxis And Treatment Of Defects Of The Immune System” (priority 2004, published 2008).
